This is an account of results in ChEMBL document CHEMBL5108056, “Discovery of Isoform-Selective Akt3 Degraders Overcoming Osimertinib-Induced Resistance in Non-Small Cell Lung Cancer Cells” (J Med Chem, 2022).

Activity calls are given as the source filed them. The calls are words filed in the database; no cut-off is given here. Bounds are passed on as bounds.

The target in assay [1] is T1, RAC-gamma serine/threonine-protein kinase (Homo sapiens, UniProt Q9Y243). Put plainly: Induction of AKT3 degradation in human NCI-H1975 cells assessed as reduction in AKT3 protein level at 1000 nM incubated for 24 hrs under serum free medium by Western blot analysis relative to control. The class given is cell-based.
T1 sequence (Q9Y243 whole entry): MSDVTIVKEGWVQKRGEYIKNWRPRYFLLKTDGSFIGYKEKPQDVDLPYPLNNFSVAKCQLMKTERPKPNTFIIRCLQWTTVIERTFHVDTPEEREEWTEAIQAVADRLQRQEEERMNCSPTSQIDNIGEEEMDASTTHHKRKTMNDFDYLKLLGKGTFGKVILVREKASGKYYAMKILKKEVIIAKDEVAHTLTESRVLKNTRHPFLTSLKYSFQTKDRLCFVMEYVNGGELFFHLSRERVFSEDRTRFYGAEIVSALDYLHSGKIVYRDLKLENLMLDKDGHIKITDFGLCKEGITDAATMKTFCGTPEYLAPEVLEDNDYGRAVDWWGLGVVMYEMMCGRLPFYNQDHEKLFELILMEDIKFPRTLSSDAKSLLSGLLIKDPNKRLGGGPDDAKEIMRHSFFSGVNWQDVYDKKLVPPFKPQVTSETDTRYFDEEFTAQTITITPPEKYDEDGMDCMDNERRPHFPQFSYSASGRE
Assay [2] deals with T2, RAC-alpha serine/threonine-protein kinase (Homo sapiens, UniProt P31749). Put plainly: Induction of AKT1 degradation in human NCI-H1975 cells assessed as reduction in AKT1 protein level incubated for 24 hrs under serum free medium by Western blot analysis. The class given is cell-based. (In general: In western blotting, separated proteins are transferred to a membrane and probed.)
T2 sequence (P31749 whole entry): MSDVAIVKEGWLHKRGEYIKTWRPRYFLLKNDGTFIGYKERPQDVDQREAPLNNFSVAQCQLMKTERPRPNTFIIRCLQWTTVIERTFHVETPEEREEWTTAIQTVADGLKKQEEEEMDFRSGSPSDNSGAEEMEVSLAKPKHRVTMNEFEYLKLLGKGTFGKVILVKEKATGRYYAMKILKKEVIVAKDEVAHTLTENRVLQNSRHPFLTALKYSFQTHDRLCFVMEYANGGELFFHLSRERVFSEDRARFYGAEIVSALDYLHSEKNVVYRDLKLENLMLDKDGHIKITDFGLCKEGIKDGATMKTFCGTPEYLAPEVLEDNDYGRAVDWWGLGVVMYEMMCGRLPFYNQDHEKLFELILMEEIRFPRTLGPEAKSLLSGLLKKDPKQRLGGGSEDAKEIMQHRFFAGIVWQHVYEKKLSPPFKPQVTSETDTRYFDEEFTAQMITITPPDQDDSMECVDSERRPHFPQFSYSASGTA

The target of assay [3] is T3, RAC-beta serine/threonine-protein kinase (Homo sapiens, UniProt P31751). Briefly: Induction of AKT2 degradation in human NCI-H1975 cells assessed as reduction in AKT2 protein level incubated for 24 hrs under serum free medium by Western blot analysis. It is filed as cell-based.
T3 sequence (P31751 whole entry): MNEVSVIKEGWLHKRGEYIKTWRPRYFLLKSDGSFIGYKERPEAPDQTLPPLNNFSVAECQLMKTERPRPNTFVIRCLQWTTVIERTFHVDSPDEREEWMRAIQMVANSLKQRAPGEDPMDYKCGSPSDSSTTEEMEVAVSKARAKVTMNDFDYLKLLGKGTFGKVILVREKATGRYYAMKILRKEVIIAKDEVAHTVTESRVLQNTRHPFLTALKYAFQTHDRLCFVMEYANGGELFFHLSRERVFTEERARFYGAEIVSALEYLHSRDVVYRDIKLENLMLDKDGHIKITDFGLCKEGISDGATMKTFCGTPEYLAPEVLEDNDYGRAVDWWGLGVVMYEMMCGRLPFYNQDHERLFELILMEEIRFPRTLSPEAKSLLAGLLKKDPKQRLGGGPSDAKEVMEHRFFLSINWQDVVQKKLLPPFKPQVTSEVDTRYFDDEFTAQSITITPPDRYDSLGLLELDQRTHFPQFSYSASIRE
For assay [4], the target named is T1, RAC-gamma serine/threonine-protein kinase. Put plainly: Induction of AKT3 degradation in human NCI-H1975 cells assessed as reduction in AKT3 protein level incubated for 24 hrs under serum free medium by Western blot analysis. It is filed as cell-based.
The target in assay [5] is Epidermal growth factor receptor (Homo sapiens, UniProt P00533). Put plainly: Inhibition of EGFR in human NCI-H1975 cells. It is filed as cell-based.
Sequence of Epidermal growth factor receptor (Homo sapiens, UniProt P00533) (P00533 whole entry): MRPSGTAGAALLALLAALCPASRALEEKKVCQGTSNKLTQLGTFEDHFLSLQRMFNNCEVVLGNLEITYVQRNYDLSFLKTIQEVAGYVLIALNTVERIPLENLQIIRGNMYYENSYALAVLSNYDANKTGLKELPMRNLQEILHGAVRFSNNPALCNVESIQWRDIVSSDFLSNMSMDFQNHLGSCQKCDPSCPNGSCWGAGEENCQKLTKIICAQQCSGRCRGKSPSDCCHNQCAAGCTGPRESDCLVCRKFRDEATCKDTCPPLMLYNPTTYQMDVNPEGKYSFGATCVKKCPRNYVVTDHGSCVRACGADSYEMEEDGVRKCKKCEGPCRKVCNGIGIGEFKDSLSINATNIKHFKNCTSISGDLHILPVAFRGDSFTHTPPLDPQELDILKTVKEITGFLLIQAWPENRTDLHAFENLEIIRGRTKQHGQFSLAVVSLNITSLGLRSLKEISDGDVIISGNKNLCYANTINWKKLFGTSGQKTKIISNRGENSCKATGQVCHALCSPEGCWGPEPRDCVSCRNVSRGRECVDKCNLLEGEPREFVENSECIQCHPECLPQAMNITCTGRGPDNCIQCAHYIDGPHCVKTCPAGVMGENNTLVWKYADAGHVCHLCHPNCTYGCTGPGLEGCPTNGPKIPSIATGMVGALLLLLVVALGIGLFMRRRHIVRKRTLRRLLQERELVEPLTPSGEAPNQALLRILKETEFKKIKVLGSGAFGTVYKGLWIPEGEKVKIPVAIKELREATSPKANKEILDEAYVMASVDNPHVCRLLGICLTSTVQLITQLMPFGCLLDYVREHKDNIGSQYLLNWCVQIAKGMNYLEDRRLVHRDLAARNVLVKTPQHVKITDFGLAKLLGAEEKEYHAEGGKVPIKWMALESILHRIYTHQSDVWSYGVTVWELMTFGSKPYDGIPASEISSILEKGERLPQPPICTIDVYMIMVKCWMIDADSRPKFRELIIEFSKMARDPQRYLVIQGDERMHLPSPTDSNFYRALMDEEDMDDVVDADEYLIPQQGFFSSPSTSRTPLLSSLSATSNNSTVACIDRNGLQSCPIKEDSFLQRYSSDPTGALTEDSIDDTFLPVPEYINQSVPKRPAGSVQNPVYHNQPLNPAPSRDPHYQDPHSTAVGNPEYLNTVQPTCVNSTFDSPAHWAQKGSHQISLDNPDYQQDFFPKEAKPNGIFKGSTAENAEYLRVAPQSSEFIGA
The target in assay [6] is T2, RAC-alpha serine/threonine-protein kinase. Briefly: Induction of AKT1 degradation in human NCI-H1975 cells assessed as reduction in AKT1 protein level at 1000 nM incubated for 24 hrs under serum free medium by Western blot analysis relative to control. It is filed as cell-based.
Assay [7] deals with T3, RAC-beta serine/threonine-protein kinase. Briefly: Induction of AKT2 degradation in human NCI-H1975 cells assessed as reduction in AKT2 protein level at 1000 nM incubated for 24 hrs under serum free medium by Western blot analysis relative to control. It is filed as cell-based.
For assay [8], the system named is NCI-H1975. Put plainly: Antiproliferative activity against human osimertinib resistant NCI-H1975 cells assessed as reduction in cell viability measured after 24 hrs by CCK-8 assay. It is filed as functional, cell-based. The following applies: NCI-H1975, 24 h.
Assay [9] concerns NCI-H1975. Put plainly: Antiproliferative activity against human NCI-H1975 cells harbouring Akt3 T305A/S472A mutant assessed as reduction in cell viability incubated for 72 hrs by CCK-8 assay. It is filed as functional, cell-based. The following applies: NCI-H1975, 72 h. Background: Formazan colour is commonly taken as a measure of viable cells.
Assay [10] deals with NCI-H1975. Put plainly: Antiproliferative activity against human NCI-H1975 cells assessed as reduction in cell viability incubated for 72 hrs by CCK-8 assay. The following applies: NCI-H1975, 72 h.
The test system of assay [11] is NCI-H1975. Put plainly: Antiproliferative activity against human NCI-H1975 cells harbouring wild type Akt3 assessed as reduction in cell viability incubated for 72 hrs by CCK-8 assay. The following applies: NCI-H1975, 72 h.
Assay [12] has as its target T1, RAC-gamma serine/threonine-protein kinase. Put plainly: Binding affinity to full length N-terminal His6-sumo tagged AKT3 (unknown origin) expressed Escherichia coli BL21 (DE3) cells incubated for 2 hrs by pull-down/ LC-MS analysis.
The target is the same in assay [13]. Briefly: Binding affinity to full length N-terminal His6-sumo tagged AKT3 (unknown origin) expressed Escherichia coli BL21 (DE3) cells by pull-down/ Western blot analysis.
Assay [14] concerns the target Epidermal growth factor receptor (Homo sapiens, UniProt P00533, T790M). Briefly: Inhibition of EGFR T790M mutant in human NCI-H1975 cells incubated for 24 hrs under serum free medium by Western blot analysis. It is filed as cell-based.

Sequence of Epidermal growth factor receptor (Homo sapiens, UniProt P00533, T790M) (P00533 25-1210 T790M limits assumed): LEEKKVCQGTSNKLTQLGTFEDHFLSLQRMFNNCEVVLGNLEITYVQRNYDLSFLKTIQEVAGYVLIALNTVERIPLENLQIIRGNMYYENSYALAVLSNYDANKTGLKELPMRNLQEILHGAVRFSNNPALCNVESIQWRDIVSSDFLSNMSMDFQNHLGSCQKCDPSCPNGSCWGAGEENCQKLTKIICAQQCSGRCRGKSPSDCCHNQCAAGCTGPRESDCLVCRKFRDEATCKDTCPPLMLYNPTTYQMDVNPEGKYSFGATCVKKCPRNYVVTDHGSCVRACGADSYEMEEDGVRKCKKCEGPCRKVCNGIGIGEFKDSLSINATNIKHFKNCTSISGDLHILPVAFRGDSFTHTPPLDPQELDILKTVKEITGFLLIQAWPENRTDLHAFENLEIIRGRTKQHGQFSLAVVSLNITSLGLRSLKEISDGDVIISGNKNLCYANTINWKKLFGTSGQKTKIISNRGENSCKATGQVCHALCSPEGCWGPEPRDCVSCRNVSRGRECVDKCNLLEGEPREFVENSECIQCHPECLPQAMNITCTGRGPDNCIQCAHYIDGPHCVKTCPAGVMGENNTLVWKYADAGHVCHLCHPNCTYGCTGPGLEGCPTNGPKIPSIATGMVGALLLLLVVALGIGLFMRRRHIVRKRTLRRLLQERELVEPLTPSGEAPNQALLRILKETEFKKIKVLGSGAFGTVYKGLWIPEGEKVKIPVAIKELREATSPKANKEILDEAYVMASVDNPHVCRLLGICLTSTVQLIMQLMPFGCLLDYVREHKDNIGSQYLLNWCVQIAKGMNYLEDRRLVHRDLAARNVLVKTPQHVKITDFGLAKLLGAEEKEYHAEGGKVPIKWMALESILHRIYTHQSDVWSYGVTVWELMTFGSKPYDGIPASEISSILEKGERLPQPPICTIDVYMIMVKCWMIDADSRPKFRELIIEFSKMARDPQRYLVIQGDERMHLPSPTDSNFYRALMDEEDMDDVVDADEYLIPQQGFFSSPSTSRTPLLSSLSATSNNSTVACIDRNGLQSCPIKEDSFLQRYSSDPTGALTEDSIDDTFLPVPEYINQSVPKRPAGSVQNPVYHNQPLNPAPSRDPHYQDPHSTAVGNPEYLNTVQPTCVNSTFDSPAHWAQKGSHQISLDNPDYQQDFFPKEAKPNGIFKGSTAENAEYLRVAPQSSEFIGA

With `COc1cc(N2CCN(CCCCCCCCCCCCNC(=O)CC34CC5CC(CC(C5)C3)C4)CC2)ccc1Nc1ncc2c(C)cc(=O)n(-c3cccc(NC(=O)C(C)C)c3)c2n1`, the Emax (commonly the size of the effect at its maximum, as opposed to the concentration needed) in assay [1] was 71%. The EC50 (usually the midpoint of the concentration-response curve) in [2] was greater than 1000 nM; in assay [3], greater than 1000 nM; in assay [4], 33 nM; in [5], 143 nM.

Regarding `C=CC(=O)Nc1cccc(-n2c(=O)cc(C)c3cnc(Nc4ccc(N5CCN(CCCCCCCCCCNC(=O)CC67CC8CC(CC(C8)C6)C7)CC5)cc4OC)nc32)c1`, the Emax in assay [1] amounted to 51%. Further, the EC50 in assay [2] is greater than 1000 nM; in assay [3], greater than 1000 nM; in [4] it was 402 nM.

`C=CC(=O)Nc1cccc(-n2c(=O)cc(C)c3cnc(Nc4ccc(N5CCN(CCOCCOCCNC(=O)CC67CC8CC(CC(C8)C6)C7)CC5)cc4OC)nc32)c1`: the maximal effect (Emax) in assay [1] and in assay [6] was 55% in each case. For the same compound, the EC50 in assay [2] is 300 nM; in assay [3], greater than 1000 nM; in assay [4], 564 nM.

In the case of `C=CC(=O)Nc1cccc(-n2c(=O)cc(C)c3cnc(Nc4ccc(N5CCN(CCCCCCCCNC(=O)CC67CC8CC(CC(C8)C6)C7)CC5)cc4OC)nc32)c1`, the values for the Emax in assay [1], in assay [7] and in [6] were 75%, 69% and 55%, respectively. Besides, the EC50 in [2] came out at 168 nM; in [3], 82 nM; in assay [4], 52 nM.

As for `CC(C)NC[C@@H](C(=O)N1CCN(c2ncnc3c2[C@H](C)C[C@H]3O)CC1)c1ccc(Cl)cc1` [IPATASERTIB], the IC50 (commonly the concentration needed to halve the response being measured) in the assay with NCI-H1975 [8] was greater than 20000 nM.

Turning to `C=CC(=O)Nc1cc(Nc2nccc(-c3cn(C)c4ccccc34)n2)c(OC)cc1N(C)CCN(C)C` [OSIMERTINIB], the values for the IC50 in the assay on NCI-H1975 [9], in the assay on NCI-H1975 [10] and in the assay with NCI-H1975 [11] were […], […] and […], respectively.

In the case of `C=CC(=O)Nc1cccc(-n2c(=O)cc(C)c3cnc(Nc4ccc(N5CCN(C(=O)CCCCCCCCCCCNC(=O)CC67CC8CC(CC(C8)C6)C7)CC5)cc4OC)nc32)c1`, the EC50 in assay [2], in assay [3] and in [4] was greater than 1000 nM throughout.

Consider `C=CC(=O)Nc1cccc(-n2c(=O)cc(C)c3cnc(Nc4ccc(N5CCN(CCCCCCCCCCCCCCNC(=O)CC67CC8CC(CC(C8)C6)C7)CC5)cc4OC)nc32)c1`, for which the Emax in assay [1] turned out to be 75%. For the same compound, the EC50 was greater than 1000 nM in [2], greater than 1000 nM in [3] and 120 nM in assay [4].

In the case of `C#CCN(CCCCCCCCCCCCN1CCN(c2ccc(Nc3ncc4c(C)cc(=O)n(-c5cccc(NC(=O)C6CC6)c5)c4n3)c(OC)c2)CC1)C(=O)CC12CC3CC(CC(C3)C1)C2`, the outcome in assay [12] and in assay [13] was Active.

For `COc1cc(N2CCN(CCCCCCCCCCCCNC(=O)CC34CC5CC(CC(C5)C3)C4)CC2)ccc1Nc1ncc2c(C)cc(=O)n(-c3cccc(NC(=O)C(C)(C)C)c3)c2n1`, in assay [1], the Emax came out at 77%. Further, the figures for the EC50 in assay [2], in assay [3] and in assay [4] were greater than 1000 nM, greater than 1000 nM and 57 nM, respectively.

Consider `C=CC(=O)Nc1cccc(-n2c(=O)cc(C)c3cnc(Nc4ccc(N5CCN(CCCCCCNC(=O)CC67CC8CC(CC(C8)C6)C7)CC5)cc4OC)nc32)c1`, for which the EC50 in [2] is greater than 1000 nM; in assay [3] it was greater than 1000 nM; in assay [4], 1000 nM.

`COc1cc(N2CCN(CCCCCCCCCCCCNC(=O)CC34CC5CC(CC(C5)C3)C4)CC2)ccc1Nc1ncc2c(C)cc(=O)n(-c3cccc(N)c3)c2n1`: in [1], the Emax was 77%. Moreover, the EC50 was greater than 1000 nM in assay [2], greater than 1000 nM in assay [3] and 102 nM in assay [4].

Turning to `COc1cc(N2CCN(CCCCCCCCCCCCNC(=O)CC34CC5CC(CC(C5)C3)C4)CC2)ccc1Nc1ncc2c(C)cc(=O)n(-c3ccc(NC(=O)C4CC4)cc3)c2n1`, the EC50 in assay [2], in assay [3] and in assay [4] was greater than 1000 nM throughout. Besides, the IC50 with NCI-H1975 [8] is greater than 10000 nM.

In the case of `C[C@@H]1CC(O)c2ncnc(N3CCN(C(=O)[C@H](CNCCCCCCCCCCc4cccc5c4C(=O)N(C4CCC(=O)NC4=O)C5=O)c4ccc(Cl)cc4)CC3)c21` (mixture of isomers), the IC50 with NCI-H1975 [8] turned out to be 2420 nM.

On to `C=CC(=O)Nc1cccc(-n2c(=O)cc(C)c3cnc(Nc4ccc(N5CCN(C)CC5)cc4OC)nc32)c1`, for which the EC50 in [2], in [3] and in [4] was greater than 1000 nM each time.

As for `C=CC(=O)Nc1ccc(-n2c(=O)cc(C)c3cnc(Nc4ccc(N5CCN(CCCCCCCCCCCCNC(=O)CC67CC8CC(CC(C8)C6)C7)CC5)cc4OC)nc32)cc1`, the EC50 in [2], in assay [3] and in [4] was greater than 1000 nM in each case.

On to `C=CC(=O)Nc1cccc(-n2c(=O)cc(C)c3cnc(Nc4ccc(N5CCN(CCCCCCCCCCCCNC(=O)CC67CC8CC(CC(C8)C6)C7)CC5)cc4OC)nc32)c1`, for which the Emax in [1] worked out at 73%. Further, the EC50 in assay [14] is 20.1 nM; in [2] it was greater than 1000 nM; in [3], greater than 1000 nM; in assay [4] it was 52 nM.

As for `COc1cc(N2CCN(CCCCCCCCCCCCNC(=O)CC34CC5CC(CC(C5)C3)C4)CC2)ccc1Nc1ncc2c(C)cc(=O)n(-c3cccc(NC(C)=O)c3)c2n1`, the Emax in assay [1] amounted to 68%. Besides, the EC50 in assay [2] was greater than 1000 nM; in assay [3] it was greater than 1000 nM; in assay [4], 67 nM.

Regarding `CCC(=O)Nc1cccc(-n2c(=O)cc(C)c3cnc(Nc4ccc(N5CCN(CCCCCCCCCCCCNC(=O)CC67CC8CC(CC(C8)C6)C7)CC5)cc4OC)nc32)c1`, in [1], the Emax came out at 74%. Besides, the values for the EC50 in [2], in [3] and in [4] were greater than 1000 nM, greater than 1000 nM and 34 nM, respectively.
